Like-named read-outs stand apart in the source and are kept apart here.
Experiments:
[1] = in vitro liver microsome metabolic stability, human; assay type: in vitro ADME; details: Human liver microsomes, 37°C
Description: (§1) Preparation of working solutions for test compounds and standards: An appropriate amount of the compound was accurately weighed and dissolved in a corresponding volume of suitable solvent to prepare 1 mM stock solutions of the test compounds and standards. The stock solutions were then diluted with appropriate solvent to obtain 100 µM working solutions of the test compounds, ensuring that the DMSO content in the working solutions remained below 10%.
(§2) The internal standard compound testosterone (or tolbutamide) and its corresponding solvent, internal standard concentration (200 ng/mL), were selected based on the properties of the test compound.
(§3) • Solution A: 0.1 mol/L K2HPO4 (2.28 g K2HPO4·3H2O was dissolved in 100 mL of double-distilled water); • Solution B: 0.1 mol/L KH2PO4 (1.36 g KH2PO4 was dissolved in 100 mL of double-distilled water); • 80.2 mL of Solution A and 19.8 mL of Solution B were mixed thoroughly, and the pH was adjusted to 7.4.
(§4) 37.5 mg of glycine was weighed, dissolved in 100 mL of ultrapure water, and adjusted to pH 8.0 with NaOH.
(§5) 1.25 mg of glucose-6-phosphate dehydrogenase (400 U/mg) was weighed (the specific amount weighed was calculated based on the activity of the purchased glucose-6-phosphate dehydrogenase), dissolved in 1 mL of glycine buffer to a concentration of 500 U/mL, aliquoted into 20 µL per tube, and stored at -20°C for future use.
(§6) 7.83 mg of NADP, 0.06 mL of D-glucose-6-phosphate (260 mg/mL), and 10.17 mg of MgCl2·6H2O were precisely weighed.
(§7) The mixture was dissolved in 1 mL of pure water. The cofactor ratio composition: NADP 10 mM, D-glucose-6-phosphate 60 mM, MgCl2·6H2O 50 mM.
(§8) The reaction system (taking a 500 µL system as an example) was composed of the following solution ratios: 416.5 µL phosphate buffer, 5 µL compound working solution, 25 µL liver microsomes, 3.5 µL glucose-6-phosphate dehydrogenase, and 50 µL cofactor solution. The total incubation volume could be adjusted according to experimental requirements.
(§9) 416.5 µL of phosphate buffer was taken, 25 µL of liver microsomes, 3.5 µL of glucose-6-phosphate dehydrogenase, and 50 µL of cofactor solution were added, vortexed twice to mix, and preincubated in a 37°C water bath for 5 minutes. Then, 5 µL of the test compound working solution was added, vortexed twice to mix, each time for 2-3 seconds, and placed in a 37°C water bath to initiate the reaction, with two parallel samples set. At 0.5 min, 1 min, 2 min, 5 min, 15 min, and 30 min after the reaction, 50 µL of the mixture was taken and added to centrifuge tubes containing 200 µL of 0°C pre-cooled internal standard working solution to terminate the reaction, vortexed for 1 minute to mix, and centrifuged at 13,000 rpm for 10 minutes in a 4°C pre-cooled high-speed centrifuge. The supernatant was collected for analysis. After the compound was added and vortex-mixed, 50 µL of the mixture was rapidly transferred to a centrifuge tube containing 200 µL of a pre-cooled (0°C) internal standard working solution to terminate the reaction, vortex-mixed for 1 minute, and used as the relative zero-point sample (relative to the standard group). The sample was then placed into a 37°C water bath to initiate the reaction, and timing was started.
(§10) The sample analysis of the test compound was performed using the liquid chromatography-tandem mass spectrometry (LCMS/MS) method. The semi-quantitative determination was performed using the ratio of the analyte peak area to the internal standard peak area. The retention times of the analyte and internal standard, chromatogram acquisition, and chromatogram integration were processed using Analyst software.
(§11) The in vitro elimination rate constant k of the test compound and the control compound was determined by converting the ratio of the peak area of the test compound to the internal standard into the remaining rate, and T1/2 was then calculated according to the following formula. T1/2 = (Ln2)/(k) = (0.693)/(k) [formula] Table 3. […]

[2] = in vitro liver microsome metabolic stability, beagle dog; assay type: in vitro ADME; details: Beagle dog liver microsomes, 37°C
Description: as §1, §2, §3, §4, §5, §6, §7, §8, §9, §10, §11

[3] = in vitro liver microsome metabolic stability, rat; assay type: in vitro ADME; details: Rat liver microsomes, 37°C
Description: as §1, §2, §3, §4, §5, §6, §7, §8, §9, §10, §11

[4] = in vivo pharmacokinetic study in SD rats; details: rat; for bioavailability: 1 mg/kg PO vs 1 mg/kg IV, read-out: Oral bioavailability F (%); for AUC(0-t) / Cmax / half-life: 1 mg/kg
In short: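 Male SD rats (180-200 g), 3 per route: single fasted oral gavage in 1% Tween 80 or tail-vein IV bolus in 50% PEG400. Orbital blood into EDTA-K2 sampled to 8 h; plasma analysed and PK parameters derived by non-compartmental analysis.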

human CCR6 = molecular target: T1, human CCR6 (Homo sapiens, UniProt P51684); experiment: human CCR6 calcium flux activity (FLIPR, HEK293 cells stably expressing human CCR6, CCL20 stimulation); assay type: cell-based; details: HEK293 cells stably expressing human CCR6, EC80 human MIP-3 alpha/CCL20; read-out: CCR6 inhibitory activity, IC50
T1 construct: expressed in transfected cells; host or cells: HEK293
T1 sequence (P51684 1-374): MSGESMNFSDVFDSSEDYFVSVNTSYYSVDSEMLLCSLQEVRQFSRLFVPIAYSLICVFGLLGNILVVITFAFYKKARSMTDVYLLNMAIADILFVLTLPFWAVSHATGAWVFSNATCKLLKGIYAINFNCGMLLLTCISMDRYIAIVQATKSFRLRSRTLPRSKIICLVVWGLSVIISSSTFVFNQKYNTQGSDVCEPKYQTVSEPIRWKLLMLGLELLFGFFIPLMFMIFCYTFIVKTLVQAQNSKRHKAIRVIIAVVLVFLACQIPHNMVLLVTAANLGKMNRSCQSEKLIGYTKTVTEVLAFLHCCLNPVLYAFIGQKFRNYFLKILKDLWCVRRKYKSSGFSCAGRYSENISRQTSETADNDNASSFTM
In short: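 Compounds preincubated with Fluo-4 Direct-loaded cells 50 min at 37 °C, then 10 min at room temperature, before CCL20 challenge at EC80. Fluorescence (ex 494/em 516 nm) recorded 90 s; max−min signal gives inhibition, four-parameter fit yields IC50.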

| Structure (SMILES) | Liver microsome T1-2 (min) Human [1] [min] | Liver microsome T1-2 (min) Beagle dog [2] [min] | Liver microsome T1-2 (min) Rat [3] [min] | also measured |
| --- | --- | --- | --- | --- |
| CN(C)C(=O)c1nccc(Nc2c(N[C@@H](c3ccc(Cl)cn3)C3(C)CCCC3)c(=O)c2=O)c1O [compound 013, (R)-4-((2-(((5-chloropyridin-2-yl)(1-methylcyclopentyl)methyl)amino)-3,4-dioxocyclobut-1-en-1-yl)amino)-3-hydroxy-N,N-dimethylpicolinamide] | 345.84 | 252.63 | 54.23 | IC50 (human CCR6): 19.3 nM |
| Cc1nccnc1[C@H](Nc1c(Nc2ccc(F)c(C(=O)N(C)C(C)C)c2O)c(=O)c1=O)C1(C)CCCC1 [compound 090, (R)-6-fluoro-2-hydroxy-N-isopropyl-N-methyl-3-((2-(((1-methylcyclopentyl)(3-methylpyrazin-2-yl)methyl)amino)-3,4-dioxocyclobut-1-en-1-yl)amino)benzamide] | 209.60 | 355.30 | 50.16 | – |
| Cc1nccnc1[C@H](Nc1c(Nc2ccnc(C(=O)N(C)C)c2O)c(=O)c1=O)C1(C)CCCC1 [compound 091, (R)-3-hydroxy-N,N-dimethyl-4-((2-(((1-methylcyclopentyl)(3-methylpyrazin-2-yl)methyl)amino)-3,4-dioxocyclobut-1-en-1-yl)amino)picolinamide] | 717.09 | 338.24 | 72.62 | – |
| CN(C)C(=O)c1nccc(Nc2c(N[C@@H](c3nc(C(F)F)ccc3F)C3(C)CC(F)(F)CO3)c(=O)c2=O)c1O (stereo partly drawn) [compound 097, 4-((2-(((1S)-(4,4-difluoro-2-methyltetrahydrofuran-2-yl)(6-(difluoromethyl)-3-fluoropyridin-2-yl)methyl)amino)-3,4-dioxocyclobut-1-en-1-yl)amino)-3-hydroxy-N,N-dimethylpicolinamide] | 724.74 | 209.62 | 230.78 | – |
| CN(C)C(=O)c1nccc(Nc2c(NC(c3nc(C(F)(F)F)ccc3F)C3(C)CC(F)(F)CO3)c(=O)c2=O)c1O (stereo not shown) [compound 098] | 208.30 | 102.59 | 195.59 | bioavailability ([4]; in vivo): 21.6%; AUC(0-t) ([4]; in vivo, IV): 630 ng·h/mL; Cmax ([4]; in vivo, IV): 2740 ng/mL; AUC(0-t) ([4]; in vivo, PO): 136 ng·h/mL; Cmax ([4]; in vivo, PO): 102 ng/mL; half-life ([4]; in vivo, PO): 2.74 h |

Continued, in another order:

| Liver microsome T1-2 (min) Human [1] [min] | Liver microsome T1-2 (min) Beagle dog [2] [min] | Liver microsome T1-2 (min) Rat [3] [min] | Structure (SMILES) | also measured |
| --- | --- | --- | --- | --- |
| 158.82 | 222.45 | 216.24 | Cc1cccnc1[C@H](Nc1c(Nc2ccnc(C(=O)N(C)C)c2O)c(=O)c1=O)[C@]1(C)CC(F)(F)CO1 (single isomer, unassigned) [128B] | bioavailability ([4]; male, plasma): 36.7%; AUC(0-t) ([4]; male, plasma, IV): 910 ng·h/mL; Cmax ([4]; male, plasma, IV): 3270 ng/mL; AUC(0-t) ([4]; male, plasma, PO): 334 ng·h/mL; Cmax ([4]; male, plasma, PO): 182 ng/mL |
| 1014.44 | 1869.75 | 53.62 | Cc1nccnc1[C@H](Nc1c(Nc2ccc(Cl)c(C(=O)N(C)C)c2O)c(=O)c1=O)C1(C)CCCC1 [compound 078, (R)-6-chloro-2-hydroxy-N,N-dimethyl-3-((2-(((1-methylcyclopentyl)(3-methylpyrazin-2-yl)methyl)amino)-3,4-dioxocyclobut-1-en-1-yl)amino)benzamide] | IC50 (human CCR6): 56.2 nM |
| 713.96 | 669.81 | 403.32 | Cc1cccnc1[C@H](Nc1c(Nc2ccc(Cl)c(C(=O)N(C)C)c2O)c(=O)c1=O)C1(C)CC(F)CO1 (stereo partly drawn) [compound 081, 6-chloro-3-((2-(((1S)-(4-fluoro-2-methyltetrahydrofuran-2-yl)(3-methylpyridin-2-yl)methyl)amino)-3,4-dioxocyclobut-l-en-1-yl)amino)-2-hydroxy-N,N-dimethylbenzamide] | – |
| 261.96 | 275.16 | 290.01 | Cc1cccnc1[C@H](Nc1c(Nc2ccnc(C(=O)N(C)C)c2O)c(=O)c1=O)C1(C)CCCO1 (stereo partly drawn) [compound 082, 3-hydroxy-N,N-dimethyl-4-((2-(((1S)-(3-methylpyridin-2-yl)(2-methyltetrahydrofuran-2-yl)methyl)amino)-3,4-dioxocyclobut-1-en-1-yl)amino)picolinamide] | – |
| 412.77 | 741.46 | 290.38 | Cc1cccnc1C(Nc1c(Nc2ccc(Cl)c(C(=O)N(C)C)c2O)c(=O)c1=O)C1(C)CCOC1 (stereo not shown) [compound 083, 6-chloro-2-hydroxy-N,N-dimethyl-3-((2-(((3-methylpyridin-2-yl)(3-methyltetrahydrofuran-3-yl)methyl)amino)-3,4-dioxocyclobut-1-en-1-yl)amino)benzamide] | – |
| 423.69 | 753.15 | 39.67 | Cc1cccnc1[C@H](Nc1c(Nc2ccc(Cl)c(C(=O)N(C)C)c2O)c(=O)c1=O)C1(C)CC(F)(F)C1 [compound 088, (R)-6-chloro-3-((2-(((3,3-difluoro-1-methylcyclobutyl)(3-methylpyridin-2-yl)methyl)amino)-3,4-dioxocyclobut-l-en-1-yl)amino)-2-hydroxy-N,N-dimethylbenzamide] | – |
| 331.10 | 258.52 | 88.93 | Cc1cccnc1[C@H](Nc1c(Nc2ccc(F)c(C(=O)N(C)C)c2O)c(=O)c1=O)C1(C)CC(F)(F)C1 [compound 089, (R)-3-((2-(((3,3-difluoro-1-methylcyclobutyl)(3-methylpyridin-2-yl)methyl)amino)-3,4-dioxocyclobut-1-en-1-yl)amino)-6-fluoro-2-hydroxy-N,N-dimethylbenzamide] | bioavailability ([4]; male, plasma): 21.1%; AUC(0-t) ([4]; male, plasma, IV): 772 ng·h/mL; Cmax ([4]; male, plasma, IV): 4300 ng/mL; AUC(0-t) ([4]; male, plasma, PO): 163 ng·h/mL; Cmax ([4]; male, plasma, PO): 96.4 ng/mL; half-life ([4]; male, plasma, PO): 2.61 h |
